EP1021178B1, “SELENOPHENE ANTI-TUMOR AGENTS” (Purdue Research Foundation, priority 1996, dated 1997)
Read-outs that look alike come from different tables or passages of the source.

Assays:
CAKI-1 = experiment: NCI human tumor cell panel; assay type: cell-based; conditions: CAKI-1, read-out: Log10 LC50 (converted)
MDA-MB-231/ATCC = experiment: NCI human tumor cell panel; assay type: cell-based
RXF-393 = experiment: NCI human tumor cell panel; assay type: cell-based; conditions: RXF 393, read-out: Log10 LC50 (converted)
SF-268 = experiment: NCI human tumor cell panel; assay type: cell-based; conditions: SF-268, read-out: Log10 LC50 (converted)
T-47D = experiment: NCI human tumor cell panel; assay type: cell-based; conditions: T47D, read-out: Log10 LC50 (converted)
UACC-257 = experiment: NCI human tumor cell panel; assay type: cell-based; conditions: UACC-257, read-out: Log10 LC50 (converted)
HL-60(TB) = experiment: NCI human tumor cell panel; conditions: for CC50: HL-60, read-out: Log10 LC50 (converted); for IC (TGI): HL-60, read-out: Log10 TGI
NCI-H226 = experiment: NCI human tumor cell panel; conditions: for CC50: NCI-H226, read-out: Log10 LC50 (converted)
COLO 205 = experiment: NCI human tumor cell panel; conditions: for CC50: COLO 205, read-out: Log10 LC50 (converted)
HT29 = experiment: NCI human tumor cell panel; conditions: HT-29, read-out: Log10 LC50 (converted)
SNB-19 = experiment: NCI human tumor cell panel; conditions: for CC50: SNB-19, read-out: Log10 LC50 (converted)
SNB-75 = experiment: NCI human tumor cell panel; conditions: for CC50: SNB-75, read-out: Log10 LC50 (converted)
MALME-3M = experiment: NCI human tumor cell panel; conditions: for CC50: read-out: Log10 LC50 (converted)
OVCAR-3 = experiment: NCI human tumor cell panel; conditions: OVCAR-3, read-out: Log10 LC50 (converted)
OVCAR-8 = experiment: NCI human tumor cell panel; conditions: OVCAR-8, read-out: Log10 LC50 (converted)
TK-10 = experiment: NCI human tumor cell panel; conditions: for CC50: TK-10, read-out: Log10 LC50 (converted)
UO-31 = experiment: NCI human tumor cell panel; conditions: UO-31, read-out: Log10 LC50 (converted)
[1] = test system: human tumor cell line panels; experiment: NCI human tumor cell panel, whole-panel summary (mean graph) and lines without a row head; conditions: for Log10 LC50, Delta / Log10 TGI, Delta / Log10 TGI, Range: whole panel
[2] = MDA-MB-231, read-out: Log10 LC50, MDA-MB-231/ATCC (converted)
[3] = Homo sapiens, read-out: Log10 GI50, Delta, Delta, whole panel (converted)
[4] = MDA-MB-231, read-out: Log10 LC50, Breast Cancer (converted), MDA-MB-231/ATCC
[5] = Homo sapiens, read-out: Log10 TGI

Structure (SMILES)	LC50 (CAKI-1) [µM]	CC50 (RXF-393) [µM]	LC50 (concentration killing 50% of cells) (SF-268) [µM]	CC50 (T-47D) [µM]	CC50 (UACC-257) [µM]	CC50 (HL-60(TB)) [µM]	CC50 (NCI-H226) [µM]	CC50 (COLO 205) [µM]	CC50 (HT29) [µM]	CC50 (SNB-19) [µM]	CC50 (SNB-75) [µM]	CC50 (MALME-3M) [µM]	CC50 (OVCAR-3) [µM]	CC50 (OVCAR-8) [µM]	CC50 (TK-10) [µM]	CC50 (UO-31) [µM]	Log10 LC50, Delta [1]	Log10 TGI, Delta [1]	Log10 TGI, Range [1]	CC50 (MDA-MB-231/ATCC; [4]) [µM]	other results
O=Cc1ccc(-c2ccc(-c3ccc(C=O)[se]3)[se]2)[se]1	> 100	> 100	> 100	> 100	> 100	> 100	> 100	> 100	> 100	> 100	> 100	> 100	> 100	> 100	> 100	> 100	-4.02	-4.18	1.91		CC50 (MDA-MB-231/ATCC; [2]): > 100 µM; GI50 [1, 3]: 21.4 µM
O=Cc1ccc(-c2ccc(-c3ccc[se]3)[se]2)[se]1	14.5	> 100	> 100	47.9	33.1	> 100	38.9	34.7	36.3	87.1	> 100	64.6	30.9	95.5	25.1	53.7	-4.25	-4.78	1.37		GI50 [1, 3]: 3.72 µM
OCc1ccc(-c2ccc(-c3ccc[se]3)[se]2)[se]1	51.3		> 100	44.7		> 100		> 100	58.9	> 100	> 100	50.1	6.92	> 100	> 100	> 100				> 100	
O=Cc1ccc(-c2ccc(-c3cccs3)[se]2)s1		> 100	> 100	91.2	0.309	> 100	1.05	> 100	> 100	> 100	> 100	> 100	> 100	> 100	53.7	> 100	-4.13	-4.42	3.13		IC (TGI) (SNB-75; SNB-75, read-out: Log10 TGI): 57.5 µM; GI50 [1, 3]: 6.76 µM
OCc1ccc(-c2ccc(-c3ccc(CO)[se]3)[se]2)[se]1	13.2	8.71	20.9		31.6		9.12	17.8	66.1	91.2	> 100	56.2	5.37	72.4	15.8	38.9					IC (TGI) (TK-10; TK-10, read-out: Log10 TGI): 0.661 µM; IC (TGI) [1, 5]: 10.5 µM
O=Cc1ccc(-c2ccc(-c3ccc(C=O)[se]3)s2)[se]1	> 100	> 100	> 100	> 100	6.92	> 100	2.45	> 100	> 100	> 100	> 100	> 100	> 100	> 100	> 100	> 100	-4.07	-4.17	2.18		CC50 (MDA-MB-231/ATCC; [2]): > 100 µM; IC (TGI) (HL-60(TB)): > 100 µM
O=Cc1ccc(-c2ccc(-c3ccc(C=O)s3)[se]2)s1	> 100	> 100	> 100	> 100	5.75	> 100	8.51	> 100	> 100	> 100	> 100	> 100	4.07	> 100	> 100		-4.07	-4.21	1.61		CC50 (MDA-MB-231/ATCC; [2]): > 100 µM; IC (TGI) (HL-60(TB)): > 100 µM; GI50 [1, 3]: 17.8 µM
OCc1ccc(-c2ccc(-c3ccc[se]3)s2)[se]1	64.6	> 100	> 100	> 100	0.457	> 100	0.525	66.1	> 100	> 100	> 100	> 100	40.7	> 100	72.4	> 100				> 100	IC (TGI) (COLO 205; COLO 205, read-out: Log10 TGI): 12.6 µM; IC (TGI) (MALME-3M; read-out: Log10 TGI): > 100 µM
OCc1ccc(-c2ccc(-c3ccc(CO)[se]3)s2)s1					0.24			61.7	> 100	> 100	> 100	> 100	50.1	> 100	64.6	> 100				97.7	
OCc1ccc(-c2ccc(-c3ccc(CO)s3)[se]2)s1	> 100	> 100	> 100	> 100		> 100	> 100	22.9	> 100	> 100		> 100	> 100	> 100	> 100	> 100				> 100	
OCc1ccc(-c2ccc(-c3ccc(CO)[se]3)s2)[se]1	> 100	> 100	> 100			> 100	> 100		> 100	> 100	> 100	> 100	> 100	> 100	> 100	> 100				> 100	
O=Cc1ccc(-c2ccc(-c3ccc(C=O)[se]3)s2)s1	29.5			> 100	> 100		> 100	91.2	> 100	> 100	> 100	> 100	> 100	> 100	61.7	> 100				> 100	IC (TGI) (NCI-H226; NCI-H226, read-out: Log10 TGI): > 100 µM; IC (TGI) (SNB-19; SNB-19, read-out: Log10 TGI): > 100 µM; IC (TGI) [1, 5]: 44.7 µM
OCc1ccc(-c2ccc(-c3cccs3)[se]2)s1		> 100	> 100	> 100	0.0525	> 100	0.224		> 100	> 100	> 100	> 100	> 100	> 100	> 100	> 100		3.46	4.00		CC50 (MDA-MB-231/ATCC; [2]): > 100 µM; GI50 ([1]; Homo sapiens, read-out: Log10 GI50, MG_MID (converted)): 5.25 µM; CC50 ([1]; Homo sapiens, read-out: Log10 LC50, MG_MID (converted)): 61.7 µM; IC (TGI) ([1]; Homo sapiens, read-out: Log10 TGI, MG_MID): 28.8 µM
